Assay results reported in US12077503B2, “Substituted cyclic amides and their use as herbicides” (FMC CORPORATION, priority 2015, dated 2024).

Tests used:
Assay type in all cases: in vivo
[1] = test system: blackgrass (Alopecurus myosuroides); assay: Test A postemergence; details: Alopecurus myosuroides, post-emergence, 240 h, Postemergence, read-out: Blackgrass plant response rating (0 to 100 scale); for pest or weed control at 125 g/ha: 125 g ai/ha, visual rating about 10 d after treatment; for pest or weed control at 31 g/ha: 31 g ai/ha, 0 is no effect, 100 is complete control
How it was run: (§1)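 Visual injury, scored on a 0–100 scale relative to untreated controls, was recorded about 10 d after application. Treatments were a preemergence soil spray over planted seeds or a postemergence spray on plants at the one- to two-leaf stage, 2 to 10 cm tall, all in loam soil–sand blend in the greenhouse.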

[2] = test system: barnyardgrass (Echinochloa crus-galli); assay: Test A postemergence; details: Echinochloa crus-galli, post-emergence, 240 h, Postemergence; for pest or weed control at 125 g/ha: 125 g ai/ha, visual rating about 10 d after treatment, read-out: Barnyardgrass plant response rating (0 to 100 scale, 0 no effect, 100 complete control); for pest or weed control at 31 g/ha: 31 g ai/ha, 0 is no effect, 100 is complete control, read-out: Barnyardgrass plant response rating (0 to 100 scale)
How it was run: as §1

[3] = test system: pigweed (Amaranthus retroflexus); assay: Test A postemergence; details: Amaranthus retroflexus, post-emergence, 240 h, Postemergence, read-out: Pigweed plant response rating (0 to 100 scale); for pest or weed control at 125 g/ha: 125 g ai/ha, visual rating about 10 d after treatment; for pest or weed control at 31 g/ha: 31 g ai/ha, 0 is no effect, 100 is complete control
How it was run: as §1

[4] = test system: giant foxtail (Setaria faberii); assay: Test A postemergence; details: Setaria faberi, post-emergence, 240 h, Postemergence, read-out: Foxtail, Giant plant response rating (0 to 100 scale); for pest or weed control at 125 g/ha: 125 g ai/ha, visual rating about 10 d after treatment; for pest or weed control at 31 g/ha: 31 g ai/ha, 0 is no effect, 100 is complete control
How it was run: as §1

[5] = test system: Galium (catchweed bedstraw, Galium aparine); assay: Test A postemergence; details: Galium, post-emergence, 240 h, Postemergence, read-out: Galium plant response rating (0 to 100 scale); for pest or weed control at 125 g/ha: 125 g ai/ha, visual rating about 10 d after treatment; for pest or weed control at 31 g/ha: 31 g ai/ha, 0 is no effect, 100 is complete control
How it was run: as §1

[6] = test system: wheat (Triticum aestivum); assay: Test A postemergence; details: Triticum aestivum, post-emergence, 240 h, Postemergence, read-out: Wheat plant response rating (0 to 100 scale); for plant injury at 125 g/ha: 125 g ai/ha, visual rating about 10 d after treatment; for plant injury at 31 g/ha: 31 g ai/ha, 0 is no effect, 100 is complete control
How it was run: as §1

[7] = test system: ryegrass, Italian (Italian ryegrass, Lolium multiflorum); assay: Test A postemergence; details: Lolium multiflorum, post-emergence, 240 h, Postemergence, read-out: Ryegrass, Italian plant response rating (0 to 100 scale); for pest or weed control at 125 g/ha: 125 g ai/ha, visual rating about 10 d after treatment; for pest or weed control at 31 g/ha: 31 g ai/ha, 0 is no effect, 100 is complete control
How it was run: as §1

[8] = test system: ragweed (common ragweed, Ambrosia elatior); assay: Test A postemergence; details: Ambrosia artemisiifolia, post-emergence, 240 h, Postemergence, read-out: Ragweed plant response rating (0 to 100 scale); for pest or weed control at 125 g/ha: 125 g ai/ha, visual rating about 10 d after treatment; for pest or weed control at 31 g/ha: 31 g ai/ha, 0 is no effect, 100 is complete control
How it was run: as §1

[9] = test system: corn (Zea mays); assay: Test A postemergence; details: Zea mays, post-emergence, 240 h, Postemergence, read-out: Corn plant response rating (0 to 100 scale); for plant injury at 125 g/ha: 125 g ai/ha, visual rating about 10 d after treatment; for plant injury at 31 g/ha: 31 g ai/ha, 0 is no effect, 100 is complete control
How it was run: as §1

[10] = test system: Kochia (Kochia scoparia); assay: Test A postemergence; details: Bassia scoparia, post-emergence, 240 h, Postemergence, read-out: Kochia plant response rating (0 to 100 scale); for pest or weed control at 125 g/ha: 125 g ai/ha, visual rating about 10 d after treatment; for pest or weed control at 31 g/ha: 31 g ai/ha, 0 is no effect, 100 is complete control
How it was run: as §1

[11] = test system: barnyardgrass (Echinochloa crus-galli); assay: Test B flooded paddy test; details: Echinochloa crus-galli, 360 h, Flood, 250 g ai/ha; visually evaluated after 13 to 15 d; read-out: Plant response rating, Barnyardgrass (0 to 100 scale where 0 is no effect and 100 is complete control)
How it was run: (§2)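 Visual ratings (0 none to 100 complete control) are relative to untreated plants, taken 13–15 d after treatment in a greenhouse. Test material went straight into floodwater standing 3 cm above the soil, kept constant, on plants at the 2-leaf stage.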

[12] = test system: rice (Oryra sativa); assay: Test B flooded paddy test; details: Oryza sativa, 360 h, Flood, 250 g ai/ha; visually evaluated after 13 to 15 d; read-out: Plant response rating, Rice (0 to 100 scale where 0 is no effect and 100 is complete control)
How it was run: as §2

[13] = test system: sedge, umbrella (small-flower umbrella sedge, Cyperus difformis); assay: Test B flooded paddy test; details: Cyperus difformis, 360 h, Flood, 250 g ai/ha; visually evaluated after 13 to 15 d; read-out: Plant response rating, Sedge, Umbrella (0 to 100 scale where 0 is no effect and 100 is complete control)
How it was run: as §2

[14] = test system: ducksalad (Heteranthera limosa); assay: Test B flooded paddy test; details: Heteranthera limosa, 360 h, Flood, 250 g ai/ha; visually evaluated after 13 to 15 d; read-out: Plant response rating, Ducksalad (0 to 100 scale where 0 is no effect and 100 is complete control)
How it was run: as §2

[15] = test system: barnyardgrass (Echinochloa crus-galli); assay: Test A preemergence; details: Echinochloa crus-galli, pre-emergence, 240 h, Preemergence; for pest or weed control at 31 g/ha: 31 g ai/ha, 0 to 100 scale where 0 is no effect and 100 is complete control, read-out: Barnyardgrass plant response rating; for pest or weed control at 125 g/ha: 125 g ai/ha, 0 to 100 scale (0 no effect, 100 complete control), read-out: Plant response rating, Barnyardgrass
How it was run: as §1

[16] = test system: pigweed (Amaranthus retroflexus); assay: Test A preemergence; details: Amaranthus retroflexus, pre-emergence, 240 h, Preemergence; for pest or weed control at 31 g/ha: 31 g ai/ha, 0 to 100 scale where 0 is no effect and 100 is complete control, read-out: Pigweed plant response rating; for pest or weed control at 125 g/ha: 125 g ai/ha, 0 to 100 scale (0 no effect, 100 complete control), read-out: Plant response rating, Pigweed
[17] = test system: giant foxtail (Setaria faberii); assay: Test A preemergence; details: Setaria faberi, pre-emergence, 240 h, Preemergence; for pest or weed control at 31 g/ha: 31 g ai/ha, 0 to 100 scale where 0 is no effect and 100 is complete control, read-out: Foxtail, Giant plant response rating; for pest or weed control at 125 g/ha: 125 g ai/ha, 0 to 100 scale (0 no effect, 100 complete control), read-out: Plant response rating, Foxtail, Giant
How it was run: as §1

[18] = test system: ryegrass, Italian (Italian ryegrass, Lolium multiflorum); assay: Test A preemergence; details: Lolium multiflorum, pre-emergence, 240 h, Preemergence; for pest or weed control at 31 g/ha: 31 g ai/ha, 0 to 100 scale where 0 is no effect and 100 is complete control, read-out: Ryegrass, Italian plant response rating; for pest or weed control at 125 g/ha: 125 g ai/ha, 0 to 100 scale (0 no effect, 100 complete control), read-out: Plant response rating, Ryegrass, Italian
How it was run: as §1

[19] = test system: ragweed (common ragweed, Ambrosia elatior); assay: Test A preemergence; details: Ambrosia artemisiifolia, pre-emergence, 240 h, Preemergence; for pest or weed control at 31 g/ha: 31 g ai/ha, 0 to 100 scale where 0 is no effect and 100 is complete control, read-out: Ragweed plant response rating; for pest or weed control at 125 g/ha: 125 g ai/ha, 0 to 100 scale (0 no effect, 100 complete control), read-out: Plant response rating, Ragweed
How it was run: as §1

[20] = test system: Kochia (Kochia scoparia); assay: Test A preemergence; details: Bassia scoparia, pre-emergence, 240 h, Preemergence; for pest or weed control at 31 g/ha: 31 g ai/ha, 0 to 100 scale where 0 is no effect and 100 is complete control, read-out: Kochia plant response rating; for pest or weed control at 125 g/ha: 125 g ai/ha, 0 to 100 scale (0 no effect, 100 complete control), read-out: Plant response rating, Kochia
How it was run: as §1

`CC(C)Oc1ccc([C@H]2CN(C)C(=O)[C@@H]2C(=O)Nc2ccccc2F)cc1F` [Compound 1333] showed a pest or weed control at 125 g/ha [1] of 0%, a pest or weed control at 31 g/ha [1] of 0% and a pest or weed control at 125 g/ha [2] of 70%. For the same molecule, the pest or weed control at 31 g/ha [2] was 0%, the pest or weed control at 125 g/ha [3] was 10% and the pest or weed control at 31 g/ha [3] was 0%. The pest or weed control at 125 g/ha [4] was 60%, the pest or weed control at 31 g/ha [4] was 0% and the pest or weed control at 125 g/ha [5] was 0%. For the same molecule, the pest or weed control at 31 g/ha [5] was 0%, the plant injury at 125 g/ha [6] was 0% and the plant injury at 31 g/ha [6] was 0%. It also gave a pest or weed control at 125 g/ha [7] of 0%, a pest or weed control at 31 g/ha [7] of 0% and a pest or weed control at 125 g/ha [8] of 0%. The pest or weed control at 31 g/ha [8] was 0%, the plant injury at 125 g/ha [9] was 0% and the plant injury at 31 g/ha [9] was 0%. For the same molecule, the pest or weed control at 125 g/ha [10] was 0%, the pest or weed control at 31 g/ha [10] was 0% and the pest or weed control at 250 g/ha [11] was 45%. It also gave a pest or weed control at 250 g/ha [12] of 20%, a pest or weed control at 250 g/ha [13] of 70% and a pest or weed control at 250 g/ha [14] of 80%. It also gave a pest or weed control at 31 g/ha [15] of 40%, a pest or weed control at 125 g/ha [15] of 70% and a pest or weed control at 31 g/ha [16] of 0%. The pest or weed control at 125 g/ha [16] was 0%, the pest or weed control at 31 g/ha [17] was 90% and the pest or weed control at 125 g/ha [17] was 90%. For the same molecule, the pest or weed control at 31 g/ha [18] was 0%, the pest or weed control at 125 g/ha [18] was 0% and the pest or weed control at 31 g/ha [19] was 0%. For the same molecule, the pest or weed control at 125 g/ha [19] was 0%, the pest or weed control at 31 g/ha [20] was 0% and the pest or weed control at 125 g/ha [20] was 30%.

Molecule `COc1c([C@H]2CN(C)C(=O)[C@@H]2C(=O)Nc2cccc(F)c2F)cccc1C(F)(F)F` [Compound 1339] has a pest or weed control at 125 g/ha [1] of 0%, a pest or weed control at 31 g/ha [1] of 0% and a pest or weed control at 125 g/ha [2] of 90%. For the same molecule, the pest or weed control at 31 g/ha [2] was 70%, the pest or weed control at 125 g/ha [3] was 30% and the pest or weed control at 31 g/ha [3] was 20%. It also gave a pest or weed control at 125 g/ha [4] of 80%, a pest or weed control at 31 g/ha [4] of 70% and a pest or weed control at 125 g/ha [5] of 50%. For the same molecule, the pest or weed control at 31 g/ha [5] was 30%, the plant injury at 125 g/ha [6] was 0% and the plant injury at 31 g/ha [6] was 0%. The pest or weed control at 125 g/ha [7] was 0%, the pest or weed control at 31 g/ha [7] was 0% and the pest or weed control at 125 g/ha [8] was 20%. For the same molecule, the pest or weed control at 31 g/ha [8] was 0%, the plant injury at 125 g/ha [9] was 0% and the plant injury at 31 g/ha [9] was 0%. The pest or weed control at 125 g/ha [10] was 20%, the pest or weed control at 31 g/ha [10] was 0% and the pest or weed control at 250 g/ha [11] was 95%. For the same molecule, the pest or weed control at 250 g/ha [12] was 60%, the pest or weed control at 250 g/ha [13] was 0% and the pest or weed control at 250 g/ha [14] was 100%. For the same molecule, the pest or weed control at 31 g/ha [15] was 90%, the pest or weed control at 125 g/ha [15] was 90% and the pest or weed control at 31 g/ha [16] was 0%. The pest or weed control at 125 g/ha [16] was 0%, the pest or weed control at 31 g/ha [17] was 80% and the pest or weed control at 125 g/ha [17] was 90%. It also gave a pest or weed control at 31 g/ha [18] of 0%, a pest or weed control at 125 g/ha [18] of 20% and a pest or weed control at 31 g/ha [19] of 0%. It also gave a pest or weed control at 125 g/ha [19] of 0%, a pest or weed control at 31 g/ha [20] of 0% and a pest or weed control at 125 g/ha [20] of 50%.
